Where “and” joins values, the source holds several entries; their conditions need not be identical. Equal entries are not always repeated.
How the values were obtained:
[1] = system: ERK-2; assay: ERK-2 immune complex kinase assay in HUVEC; format: cell-based, human; conditions: SPP 10-500 nM, 10 minutes, starved HUVEC
Description: As a second functional assay, ERK-2 kinase activity was measured in response to SPP treatment. For these experiments, endothelial cells were starved for 19 hours, and then stimulated with SPP for 10 minutes. Cells were then lysed, and ERK-2 kinase activity was measured by an immune complex kinase assay using myelin basic protein (MBP) as substrate. Some cells were pretreated with pertussis toxin (PTx) at 200 ng/mL, or PD98059 at 10 μM for 2 hours prior to stimulation.

[2] = system: HUVEC; assay: Actin cytoskeleton (stress fibers, cortical actin) in HUVEC, phalloidin staining; format: cell-based, human; conditions: 500 nM SPP, 30 minutes
Description: SPP is known to induce Rho-dependent actin stress fibers in NIH3T3 fibroblasts. To disclose Rho- or Rac-dependence, HUVEC were plated at 2×10^5 cells in 35 mm glass bottom petri dishes (Plastek cultureware, Mat Tek Corporation, Ashland Mass.). Two days later, recently confluent cells were washed and changed to medium M199 supplemented with 10% dialyzed charcoal-stripped fetal bovine serum (CFBS) and growth factors for 16 hours. Approximately 500-800 cells were then microinjected cytoplasmically with Rho inhibitor C3 exoenzyme (0.1 μg/μL, Calbiochem) or dominant negative N17Rac protein (0.35 μg/μl; Ridley, A., et al., Cell 70: 401-410 (1992)) using Femtotips (Eppendorf) at 100 hPa/0.2 sec. Injected cells were marked by coinjection of FITC-rabbit IgG (5 mg/mL, Cappel).
Subsequently, cells were treated with or without SPP. After treatment cells were washed with ice-cold PBS, fixed with 4% formaldehyde at room temperature or methanol at −20° C. for 15 minutes. In the case of formaldehyde fixation, cells were permeabilized with 0.2% Triton X-100 (TX-100). Actin microfilaments were visualized by staining with either FTOC- or TRITC-conjugated phalloidin (0.05 μg/mL, Sigma) for 30 minutes at room temperature.

[3] = system: HUVEC; assay: C2-Ceramide-induced apoptosis of HUVEC (DNA fragmentation); format: cell-based, human; conditions: SPP 10 to 500 nM, 1 μM C2-Ceramide, 12 hours
Description: The ability of SPP to protect endothelial cells from apoptosis was investigated. In these experiments, HUVEC were treated with 1 μM C2-Ceramide for 12 hours and apoptosis was measured in the following manner: HUVEC were plated onto coverslips and allowed to grow for 2 days. Cells were washed three times with medium M199, and treated with 1 μM C2-Ceramide (Biomol) for 12 hours in the presence or absence of SPP. Subsequently, cells were fixed with methanol at −20° C. for 5 minutes, air dried, and stained with Hoechst 33258 dye (0.5 μg/mL for 5 minutes; Sigma Chemical Co., St. Louis, Mo.). The apoptotic nuclei were identified with the aid of a Zeiss Axiovert 100TB fluorescence microscope. For quantification, HUVEC were labeled with ^3Hmethyl-thymidine (5 μCi/mL, NEN DuPont) for 24 hours. Following three washes with medium M199, cells were treated with C2-Ceramide as above. 12 hours later, cells were extracted with lysis buffer (5 mM tris, pH 7.4, 2 mM EDTA, 0.5% TX-100) at 4° C. for 20 minutes. After centrifugation (15,000 g, 20 minutes), the radioactivity present in the supernatant and sediment was measured by liquid scintillation counting. The percentage of DNA fragmentation was determined as ((supernatant cpm)/(supernatant cpm+sediment cpm))×100%.
SPP+PTx and SPP+PD98059 (10 μM), respectively, for 2 hours prior to the addition of C2-Ceramide (1 μM) and SPP (10 to 500 nM). Data are mean±standard deviation of triplicate determinations from a representative experiment which was repeated two times. […] A similar effect was also seen when growth factor withdrawal, and 15-deoxy Δ^12,14 prostaglandin J2 were used as apoptotic stimuli (data not shown). […] Therefore SPP induced endothelial cell survival requires the Gi/ERK signaling pathway.

[4] = system: MATRIGEL plugs implanted into athymic mice; assay: MATRIGEL implant model of subcutaneous angiogenesis in athymic mice; format: in vivo
Description: To disclose if SPP regulates angiogenesis in vivo, A MATRIGEL implant model of subcutaneous angiogenesis in […] mice was used. In these experiments, female […] mice (4-6 weeks old) were injected subcutaneously with 0.4 mL MATRIGEL (approximate protein concentration 9.9 mg/mL, Collaborative Research) premixed with vehicle (fatty acid-free BSA, 115 μg/mL, Sigma), or FGF-2 (1.3 μg/mL) in the absence or presence of various concentrations of SPP. Seven days later, MATRIGEL plugs were harvested along with underlying skin and the gross angiogenic response was recorded under a Zeiss Stemi SV6 dissecting microscope. For quantification, MATRIGEL plugs were fixed with 4% paraformaldehyde in PBS, dehydrated in ethanol and xylene, embedded in paraffin, and sections subjected to hematoxylin and eosin staining. Angiogenesis was quantified by direct counting of vessels containing red blood cells residing in the stroma interface and the MATRIGEL implant. Each treatment involved 4 mice. 2 random sections from each were quantified and represented as mean±standard deviation. […]
In these experiments, MATRIGEL plugs were fixed, dehydrated, embedded, and sections were subjected to hematoxylin and eosin staining. Angiogenesis was quantified by direct counting of vascular structures as described. Vascular density for each treatment was quantified and represented as mean±standard deviation (n=4). […]

[5] = system: EDG-1; assay: EDG-1 phosphorylation in 32P-labeled HEK293EDG-1 cells; format: cell-based; conditions: 100 nM S1P
Description: FIG. 26 is an SDS PAGE showing that S1P treatment induces EDG-1 phosphorylation. HEK293EDG-1 were labeled with [^32P]-orthophosphate, and stimulated with 100 nM S1P for indicated times. Some cultures were treated with 10 μM LY294002.
To label the EDG-1 receptor in HUVEC and HEK293EDG-1 cells, they were pre-incubated in phosphate-free DMEM (GIBCO-BRL) for 2 hr. Subsequently, cells were labeled with [^32P] orthophosphate (80 μCl/ml) for 3 hr. To examine the effect of P1-3 kinase, cultures were treated with wortmannin (100 nM) or LY294002 (10 μM) during tine last hour of labeling. After SPP stimulation, ^32P-labeled EDG-1 receptor was immunoprecipitated with either chicken anti-EDG-1 1gY or anti-M2, resolved on SDS-PAGE, and visualized by autoradiography.

[6] = system: bovine microvascular endothelial cells; assay: Morphogenesis of bovine microvascular endothelial cells; format: cell-based; conditions: SPP 100 nM to 1 μM, data not shown
[7] = biological target: EDG-1 (Homo sapiens, UniProt P21453); conditions: 32P-SPP, HEK293EDG-1 cells; read-out: dissociation constant, Kd, of SPP binding to EDG-1; cited from earlier work
Sequence of EDG-1 (Homo sapiens, UniProt P21453) (P21453 whole entry): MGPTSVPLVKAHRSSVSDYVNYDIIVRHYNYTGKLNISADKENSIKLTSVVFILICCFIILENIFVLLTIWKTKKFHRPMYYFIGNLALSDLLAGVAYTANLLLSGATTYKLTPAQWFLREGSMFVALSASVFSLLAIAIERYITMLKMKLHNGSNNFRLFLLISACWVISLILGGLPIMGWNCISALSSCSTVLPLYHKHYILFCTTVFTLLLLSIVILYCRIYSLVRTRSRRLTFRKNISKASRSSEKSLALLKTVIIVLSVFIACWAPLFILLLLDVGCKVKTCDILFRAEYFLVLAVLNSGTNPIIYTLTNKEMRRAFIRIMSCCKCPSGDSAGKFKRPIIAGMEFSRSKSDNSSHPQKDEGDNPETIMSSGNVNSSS

Question: Which ERK activity [1] does the source give for CCCCCCCCCCCCC/C=C/[C@@H](O)[C@@H](N)COP(=O)(O)O [SPP, sphingosine-1-phosphate] here?
Answer: activated ERK activity in a dose-dependent manner

Question: And the “formation of stress fibers and cortical actin” value [2]?
Answer: induced the formation of stress fibers

Question: What about the “protection from apoptosis induced by C2-Ceramide” value [3] of the same molecule?
Answer: significantly protected

Question: And the “angiogenesis with SPP alone” value ([4]; MATRIGEL plug without FGF-2)?
Answer: did not induce significant angiogenesis

Question: What about the “FGF-2 induced angiogenesis (vascular density)” value ([4]; SPP + FGF-2 1.3 μg/mL in MATRIGEL plug, seven days) of the same molecule?
Answer: dramatically enhanced

Question: What about the “phosphorylation of EDG-1” value [5] of the same molecule?
Answer: induced a time-dependent phosphorylation

Question: And the “morphogenesis of bovine microvascular endothelial cells” value [6]?
Answer: induced morphogenesis

Question: And the Kd [7]?
Answer: 8.1 nM and 8 nM

From patent US20020142982A1, “Method for regulating angiogenesis” (priority 1999, published 2002)
